Data published in patent publication US20070243211A1, “Compositions for regulating metabolic disorders and methods of use thereof” (priority 2005, published 2007).

Assay: Uptake of L-carnitine by patients from oral dosage forms, measured by serum plasma levels
Assay type: in vivo
Text: Softgel capsules provide improved delivery of the components of the composition of the present invention compared to alternative dosage forms. For example, the uptake of L-carnitine by patients from tablets (e.g., measured by serum plasma levels) is about 10-14%; the uptake of L-carnitine from standard hard capsules is about 15-20%; whereas the uptake of L-carnitine from softgel capsules is about 100%.

## C[N+](C)(C)C[C@H](O)CC(=O)[O-] [L-carnitine]
From softgel capsules
  uptake of L-carnitine: about 100%
From standard hard capsules
  uptake of L-carnitine: 15-20%
From tablets
  uptake of L-carnitine: 10-14%
